Results on 31 compounds are retold here after patent US9682995B2, “Amino-substituted isothiazoles” (BAYER PHARMA AKTIENGESELLSCHAFT, priority 2013, dated 2017).

For assay [1], the system named is spindle assembly checkpoint. Kind of assay: SAC-Formation - Paclitaxel-Induced Assay. The class given is cell-based. To be noted: Homo sapiens; HeLa cells, paclitaxel 0.05 μM, 24 h, phosphorylated histone H3 on serine 10. Put shortly:
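HeLa cells were plated overnight, then given paclitaxel (0.05 μM final) plus compound (0.005-20 μM, 0.5% DMSO) for 24 h at 37° C. Fixed cells were stained for phospho-histone H3 Ser10 and with Hoechst, then imaged to give mitotic index. A fall in mitotic cells marks SAC breakthrough, and values were fit with a four-parameter Hill equation.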

For a further assay, the target named is human Bub1 (Homo sapiens (Human), UniProt O43683). Nature of the assay: Bub1 kinase assay (TR-FRET). The class given is biochemical. To be noted: 10 μM ATP; read-out: Bub1 avg (IC50 [mol/l]). In short, it runs like this:
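His6-tagged human Bub1 catalytic domain (aa 704-1085, insect-cell expressed, ~200 ng/ml) preincubated with compound 15 min, then reacted 60 min at 22 °C with 10 μM ATP and 1 μM biotinylated peptide (final) in pH 7.5 Tris buffer. Phosphopeptide detected by TR-FRET 665/620 ratio, normalised to no-inhibitor and no-enzyme controls.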

human Bub1, sequence (O43683 704-1085): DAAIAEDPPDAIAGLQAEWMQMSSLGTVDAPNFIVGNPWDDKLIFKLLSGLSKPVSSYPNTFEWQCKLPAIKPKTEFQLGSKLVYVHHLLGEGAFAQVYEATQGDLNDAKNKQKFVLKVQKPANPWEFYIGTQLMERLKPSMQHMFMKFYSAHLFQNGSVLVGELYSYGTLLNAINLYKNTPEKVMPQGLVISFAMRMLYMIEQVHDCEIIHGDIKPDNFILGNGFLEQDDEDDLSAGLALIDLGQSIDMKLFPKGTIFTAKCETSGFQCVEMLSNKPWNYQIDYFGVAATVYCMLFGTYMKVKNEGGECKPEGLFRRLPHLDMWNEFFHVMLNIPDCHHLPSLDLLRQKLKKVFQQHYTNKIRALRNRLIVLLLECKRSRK

For the compound `CCc1ccccc1NC(=O)c1c(C)nsc1Nc1ccncn1` [Example 2, N-(2-Ethylphenyl)-3-methyl-5-(pyrimidin-4-ylamino)-1,2-thiazole-4-carboxamide], the IC50 is 11000 nM in assay [1] and over 20 µM on human Bub1.
Turning to `CCc1ccccc1NC(=O)c1c(C)nsc1Nc1ncccc1C(F)(F)F` [Example 3, N-(2-Ethylphenyl)-3-methyl-5-{[3-(trifluoromethyl)pyridin-2-yl]amino}-1,2-thiazole-4-carboxamide], the IC50 in assay [1] was 5100 nM; at human Bub1, over 20 µM.
The like results for `CCc1ccccc1NC(=O)c1c(C)nsc1Nc1cc(C#N)ccn1` [Example 4, 5-[(4-Cyanopyridin-2-yl)amino]-N-(2-ethylphenyl)-3-methyl-1,2-thiazole-4-carboxamide] were, in that order, 1700 nM and over 20 µM.
The like results for `CCc1ccccc1NC(=O)c1c(C)nsc1Nc1nccc(-c2ccccc2)n1` [Example 5, N-(2-Ethylphenyl)-3-methyl-5-[(4-phenylpyrimidin-2-yl)amino]-1,2-thiazole-4-carboxamide] were, in that order, over 20000 nM and over 20 µM.
The like results for `Cc1nsc(Nc2nc3c(C(F)(F)F)ccnc3s2)c1C(=O)Nc1ccc(F)c(F)c1` [Example 58, N-(3,4-Difluorophenyl)-3-methyl-5-{[7-(trifluoromethyl)[1,3]thiazolo[5,4-b]pyridin-2-yl]amino}-1,2-thiazole-4-carboxamide] were, in that order, 290 nM and over 20 µM.
Regarding `COC(=O)c1cnc(Nc2snc(C)c2C(=O)Nc2ccc(F)c(F)c2)cn1` [Example 59, Methyl 5-({4-[(3,4-difluorophenyl)carbamoyl]-3-methyl-1,2-thiazol-5-yl}amino)-pyrazine-2-carboxylate], the IC50 in assay [1] was 260 nM; at human Bub1 it was over 20 µM.
For `Cc1nsc(Nc2cnc3cc(C(F)(F)F)ccc3n2)c1C(=O)Nc1ccc(F)c(F)c1` [Example 60, N-(3,4-Difluorophenyl)-3-methyl-5-{[6-(trifluoromethyl)quinoxalin-2-yl]amino}-1,2-thiazole-4-carboxamide], the IC50 in assay [1] is 42 nM; at human Bub1 it was over 20 µM.
The corresponding values for `Cc1nsc(Nc2cnc3cc(C(F)(F)F)ccc3n2)c1C(=O)Nc1ccc(Cl)c(Cl)c1` [Example 61, N-(3,4-Dichlorophenyl)-3-methyl-5-{[6-(trifluoromethyl)quinoxalin-2-yl]amino}-1,2-thiazole-4-carboxamide] are 340 nM and over 20 µM.
The like results for `Cc1nsc(Nc2ccc(C#N)cn2)c1C(=O)Nc1ccc(Cl)c(Cl)c1` [Example 62, 5-[(5-Cyanopyridin-2-yl)amino]-N-(3,4-dichlorophenyl)-3-methyl-1,2-thiazole-4-carboxamide] were, in that order, 33 nM and over 20 µM.
With `Cc1nsc(Nc2cncc(-c3ncco3)n2)c1C(=O)Nc1ccc(Cl)c(F)c1` [Example 63, N-(4-Chloro-3-fluorophenyl)-3-methyl-5-{[6-(1,3-oxazol-2-yl)pyrazin-2-yl]amino}-1,2-thiazole-4-carboxamide], the IC50 in assay [1] was 360 nM; on human Bub1 it was over 20 µM.
As for `Cc1nsc(Nc2cncc(-n3cccn3)n2)c1C(=O)Nc1ccc(F)c(F)c1` [Example 64, N-(3,4-Difluorophenyl)-3-methyl-5-{[6-(1H-pyrazol-1-yl)pyrazin-2-yl]amino}-1,2-thiazole-4-carboxamide], in assay [1], the IC50 worked out at 110 nM.
As to `Cc1nsc(Nc2cnccn2)c1C(=O)Nc1ccc(F)c(F)c1` [Example 65, N-(3,4-Difluorophenyl)-3-methyl-5-(pyrazin-2-ylamino)-1,2-thiazole-4-carboxamide], the IC50 in assay [1] is 690 nM; on human Bub1, over 20 µM.
The like results for `COC(=O)c1cncc(Nc2snc(C)c2C(=O)Nc2ccc(F)c(F)c2)n1` [Example 66, Methyl 6-({4-[(3,4-difluorophenyl)carbamoyl]-3-methyl-1,2-thiazol-5-yl}amino)-pyrazine-2-carboxylate] were, in that order, 90 nM and over 20 µM.
The like results for `Cc1nsc(Nc2cncc(-n3cccn3)n2)c1C(=O)Nc1ccc(Cl)c(F)c1` [Example 67, N-(4-Chloro-3-fluorophenyl)-3-methyl-5-{[6-(1H-pyrazol-1-yl)pyrazin-2-yl]amino}-1,2-thiazole-4-carboxamide] were, in that order, 22 nM and over 20 µM.
The corresponding values for `Cc1nsc(Nc2cnc3cc(C(F)(F)F)ccc3n2)c1C(=O)Nc1ccc(Cl)c(F)c1` [Example 68, N-(4-Chloro-3-fluorophenyl)-3-methyl-5-{[6-(trifluoromethyl)quinoxalin-2-yl]amino}-1,2-thiazole-4-carboxamide] are 30 nM and over 20 µM.
Regarding `Cc1cncc(Nc2snc(C)c2C(=O)Nc2ccc(F)c(F)c2)n1` [Example 69], the figures for the IC50 (in assay [1]; at human Bub1) were 10 nM and over 20 µM, respectively.
The like results for `CNC(=O)c1cncc(Nc2snc(C)c2C(=O)Nc2ccc(F)c(F)c2)n1` [Example 70, 6-({4-[(3,4-Difluorophenyl)carbamoyl]-3-methyl-1,2-thiazol-5-yl}amino)-N-methylpyrazine-2-carboxamide] were, in that order, 940 nM and 1.7 µM.
Regarding `Cc1nsc(Nc2cncc(Cl)n2)c1C(=O)Nc1ccc(F)c(F)c1` [Example 71, 5-[(6-Chloropyrazin-2-yl)amino]-N-(3,4-difluorophenyl)-3-methyl-1,2-thiazole-4-carboxamide], the IC50 in assay [1] is 84 nM; at human Bub1 it was over 20 µM.
The like results for `COc1cncc(Nc2snc(C)c2C(=O)Nc2ccc(F)c(F)c2)n1` [Example 72, N-(3,4-Difluorophenyl)-5-[(6-methoxypyrazin-2-yl)amino]-3-methyl-1,2-thiazole-4-carboxamide] were, in that order, 20000 nM and over 20 µM.
The corresponding values for `CCNC(=O)c1cncc(Nc2snc(C)c2C(=O)Nc2ccc(F)c(F)c2)n1` [Example 73, 6-({4-[(3,4-Difluorophenyl)carbamoyl]-3-methyl-1,2-thiazol-5-yl}amino)-N-ethylpyrazine-2-carboxamide] are 63 nM and 6.2 µM.
The like results for `Cc1nsc(Nc2cnc(Cl)cn2)c1C(=O)Nc1ccc(F)c(F)c1` [Example 74, 5-[(5-Chloropyrazin-2-yl)amino]-N-(3,4-difluorophenyl)-3-methyl-1,2-thiazole-4-carboxamide] were, in that order, 31 nM and over 20 µM.
In the case of `CNC(=O)c1cnc(Nc2snc(C)c2C(=O)Nc2ccc(F)c(F)c2)cn1` [Example 75, 5-({4-[(3,4-Difluorophenyl)carbamoyl]-3-methyl-1,2-thiazol-5-yl}amino)-N-methylpyrazine-2-carboxamide], the IC50 in assay [1] was 58 nM; at human Bub1, over 20 µM.
The like results for `CCc1cncc(Nc2snc(C)c2C(=O)Nc2ccc(F)c(F)c2)n1` [Example 76, N-(3,4-Difluorophenyl)-5-[(6-ethylpyrazin-2-yl)amino]-3-methyl-1,2-thiazole-4-carboxamide] were, in that order, 13 nM and over 20 µM.
For the compound `Cc1nsc(Nc2cnc(Br)cn2)c1C(=O)Nc1ccc(F)c(F)c1` [Example 77, 5-[(5-Bromopyrazin-2-yl)amino]-N-(3,4-difluorophenyl)-3-methyl-1,2-thiazole-4-carboxamide], the results for the IC50 (in assay [1]; on human Bub1) were 8.3 nM and over 20 µM, respectively.
The like results for `CCNc1cncc(Nc2snc(C)c2C(=O)Nc2ccc(F)c(F)c2)n1` [Example 78, N-(3,4-Difluorophenyl)-5-{[6-(ethylamino)pyrazin-2-yl]amino}-3-methyl-1,2-thiazole-4-carboxamide] were, in that order, 910 nM and over 20 µM.
The corresponding values for `CCc1cnc(Nc2snc(C)c2C(=O)Nc2ccc(F)c(F)c2)cn1` [Example 79, N-(3,4-Difluorophenyl)-5-[(5-ethylpyrazin-2-yl)amino]-3-methyl-1,2-thiazole-4-carboxamide] are 150 nM and over 20 µM.
The like results for `CNC(=O)c1ccc(Nc2snc(C)c2C(=O)Nc2ccc(F)c(F)c2)nn1` [Example 80, 6-({4-[(3,4-Difluorophenyl)carbamoyl]-3-methyl-1,2-thiazol-5-yl}amino)-N-methylpyridazine-3-carboxamide] were, in that order, 4700 nM and over 20 µM.
For the compound `Cc1nsc(Nc2cnc(C(F)(F)F)cn2)c1C(=O)Nc1ccc(F)c(F)c1` [Example 81, N-(3,4-Difluorophenyl)-3-methyl-5-{[5-(trifluoromethyl)pyrazin-2-yl]amino}-1,2-thiazole-4-carboxamide], the figures for the IC50 (in assay [1]; on human Bub1) were 16 nM and over 20 µM, respectively.
The corresponding values for `Cc1nsc(Nc2cncc(C(F)(F)F)n2)c1C(=O)Nc1ccc(F)c(F)c1` [Example 82, N-(3,4-Difluorophenyl)-3-methyl-5-{[6-(trifluoromethyl)pyrazin-2-yl]amino}-1,2-thiazole-4-carboxamide] are 77 nM and 15 µM.
The corresponding values for `Cc1nsc(Nc2ccc(C(F)(F)F)nn2)c1C(=O)Nc1ccc(F)c(F)c1` [Example 83, N-(3,4-Difluorophenyl)-3-methyl-5-{[6-(trifluoromethyl)pyridazin-3-yl]amino}-1,2-thiazole-4-carboxamide] are 9.3 nM and over 20 µM.
`COc1ccc(NC(=O)c2c(C)nsc2Nc2cncc(C(F)(F)F)n2)cn1` [Example 84, N-(6-methoxypyridin-3-yl)-3-methyl-5-{[6-(trifluoromethyl)pyrazin-2-yl]amino}-1,2-thiazole-4-carboxamide]: the values for the IC50 (in assay [1]; on human Bub1) were 65 nM and over 20 µM, respectively.
